Results reported in patent US20030165580A1, “Safe pharmaceutical composition for treatment and prevention of gynecological disease” (priority 2002, published 2003).

Key:
human blood lymphocytes = assay: Immune function of human blood lymphocytes (3H-TdR incorporation); format: cell-based; settings: LIG added to culture medium of lymphocytes from old volunteers (60-70 years)
Protocol: Twenty (20) old volunteers (60-70 years of age) and 10 healthy young persons participated in the experiment. 2 ml of venous blood, heparinized was obtained from each of the participants. The Study of the effects of LIG was carried out by using Eagle's Minimal Essential Medium MEM). MEM was supplemented with 0.125 ml of heat-inactivated fetal calf serum, 100 units of Penicillin and 0.1 mg of streptomycin per ml of medium. Culture medium was divided into treated (LIG) and control group. LIG was added to the culture medium of treatment group. The culture medium of control group was mixed with same volume as that of LIG of normal saline on the 72 hours of culture. The ^3H-thymidine (^3H-TdR) was added into all the cultures (2 μci/ml) for last 12 hours of culture. The cells were harvested on 0.45 μm filters, washed with phosphate buffer (ph 7.4) and bleached with H2O2. The filters were then dried and the incorporation of ^3H-TdR into lymphocytes cell was measured by scintillation counter.

white blood cells = assay: White blood cells in rats treated by cyclophosphamide; format: in vivo; settings: LIG + cyclophosphamide, 10 days treatment, P < 0.01 vs control
Description: Action of LIG and cyclophosphamide on white blood cells was investigated by means of white blood cells assay. […] Method of testing in animal is standard. The dosage of LIG and cyclophosphamide is the same as in above examples. Time of treatment is 10 days.

lymphocytes = assay: Lymphoblastoid transformation test (3H-TdR liquid scintillation); format: in vivo, mice; settings: treatment group, P < 0.01 vs control
Protocol: By means of ^3H-TdR liquid scintillation assay technique, the action of LIG on lymphoblastoid transformation was investigated method:
(1) Experimental procedure of animal is the same as in Example 2.
(2) Lemphoblastoid transformation test:
a. Culture media—RPMI 1640, medium 199 minimal essential medium (Eagle).
b. Buffer—Hepes buffer, the final concentration at 37° C. was 25 mM, to maintain the pH of the medium at 7.31.
c. Serum—generally 15-205 fetal bovine serum was incorporated, for lymphocytes from mice, 5% was used.
d. Gaseous phase—5% CO2 in air.
e. Cell concentration—generally 1-2×10^6/ml.
f. Stimulants—20 μl/ml for phytohemagglutinin containing polysaccharide (PHA-M) or 10 μl/ml for polysaccharide-free purified phytohemagglutinin (PHA-P).
a. The conditions of cell culture are same as above. ^3H-TdR was added after 48 hours of incubation at a final concentration of 1 μCi/ml and continued the incubation for 24 hours.
b. Washed the cells twice with cold normal saline and the erythrocytes were lysed. The intact lymphocytes were again washed once with cold saline. Spun down the lymphocytes and added 2 ml of 10% trichloroacetic acid to precipitate the protein. Washed twice with normal saline. Added 2 ml of ethanol:ether (1:1) to wash once. […]
c. Added 4 ml of scintillation fluid to 0.1 ml of the final sample and counted in a liquid scintillation counter.

hemopoietic system = assay: Recovery of hemopoiesis in mice treated by cyclophosphamide; format: in vivo
Description: (§1) Effects of LIG on hemopoietic system were investigated. […] With increased cells in bone-marrow (BMC), endogenous colonies in spleen and higher ^3H-TdR uptake in marrow and spleen. The level of serum colony stimulating factor (CSF) increased after injection.

uterine RNA = assay: Uterine RNA concentration; format: in vivo; settings: treatment group; absorbance at 260 nm; P < 0.01 vs control
Protocol: Uterine samples (100 mg) were digested in a 4 M guanidium thiocyanate solution, to which was added 50 μl of 2 M sodium acetate (pH 4.0), 500 μl phenol, and finally 200 μl chloroform/isoamyl alcohol (24:1, v/v) sequentially, with mixing after each addition. The RNA from the resultant solution was pelleted by mixing with 1 vol. isopropanol and incubating at −20° C. for 2 h and spun at 12000×g for 12 min, then resuspended in 0.5% sodium dodecyl sulfate (SDS). The RNA suspension was incubated for 10 min at 65° C. and stored at −20° C. until use. RNA concentration was determined by absorbance intensity at 260 nm.

[1] = system: bone marrow stem cells (CFU-S); assay: Spleen colony assay, bone marrow stem cells (CFU-S); format: in vivo; settings: treatment group, mice treated by cyclophosphamide; P < 0.01 vs control
Description: as §1, with “injection. […] Pharmacological effects as illustrated by the following table: by means of the spleen colony assay technique the action of LIG on bone marrow stem cells (CFU-S)” for “injection.”

uterine tissues = assay: DNA synthesis of uterine (3H-TdR) in cycloheximide-injured rats; format: in vivo, Sprague-Dawley rats; settings: treatment group: cycloheximide + LIG, female rats
Protocol: Female Sprague-Dawley rats at 20 days of age, allowed free access to food and water and, as immature rats, used by age 23 days. Castrate rats were the same strain. Rats of normal group were administered in saline solution by intraperitoneal injection. Rats of control group were injected cycloheximide. Rats of treatment group injected cycloherimide+LIG. At the indicated times the rats were sacrificed by decapitation. The entire uterus from oviduct to cervix was removed, quickly dissected free of fat and connective tissue, blotted on hard filter paper, and weighed. Each uterus was minced with a scissors into a 12-ml polycarbonate tube and homogenized, 10 sec with ice cooling in 10 mM Tris.HCl, pH 7.2, buffer (10 mg of tissue per ml unless otherwise stated), with homogenizer. Aliquets used for DNA analysis. Determination of DNA is used methods of ^3H-TdR.

peritoneal macrophages = assay: Phagocytosis of peritoneal macrophage of mice; format: in vivo; settings: LIG 5.5 mg/kg intraperitoneally daily for 5 days, cyclophosphamide 4.5 mg/kg; macrophages with phagocytized chick red blood cells per 100 macrophages; P < 0.01 vs control
Protocol: Male mice weight 18-20 g were used in the experiments and were divided into treated (LIG) and control groups. The dosage of LIG was 5.5 mg/kg injected intraperitoneally. The control mice were injected with same volume of normal saline. These injections were repeated daily for 5 days, both treated and control group were injected intraperitoneally with cyclosphosphamide. The dosage of cyclophosphamide is 4.5 mg/kg. The same experimental procedure for example 3, 4 and 5 in testing mice were used. Added 0.02 ml of 5% washed chick red blood cell suspension to 0.5 ml of the peritoneal exudates. Shook gently to mix and incubate at 37° C. for 5 minutes. Dipped two cover slips, closed to each other, in the above mixture and incubated for 30 minutes for the migration of the macrophages along the cover slips, fixed and stained with Sharma stain. Examined microscopically for: Phagocytic rate—number of macrophages with phagocytized chick red blood cells per 100 macrophages counted. Method of animal model is regular.

interleukin-2 (rIL-2) = assay: Interleukin-2 (rIL-2) determination; settings: treatment group
Description: The methods of determination rIL-2 were regular.

uterine peroxidase = assay: Uterine peroxidase activity (gene product of uterine) in cycloheximide-injured rats; format: in vivo, Sprague-Dawley rats; settings: treatment group: cycloheximide + LIG, intraperitoneal injection, female rats; P < 0.001 vs control
Protocol: It is known that peroxidase induction is a useful market for estrogen-effected growth responses in uterine. The uterine peroxidase is a useful gene product for assessing effect of hormones on uterine. […] Female Sprague-Dawley rats at 20 days of age, allowed free access to food and water. Castrate rats were the same strain. Rats of normal group were administered in saline solution by intraperitoneal injection. Rats of control group were injected cycloheximide. Rats of treatment group injected cycloherimide+LIG. At the indicated times the rats were sacrificed by decapitation. The entire uterus from oviduct to cervix was removed, quickly dissected free of fat and connective tissue, blotted on hard filter paper, and weighed. Each uterus was minced with a scissors into a 12-ml polycarbonate tube and homogenized, 10 sec with ice cooling in 10 mM Tris.HCl, pH 7.2, buffer (25 mg of tissue per ml unless otherwise stated), with homogenizer. The homogenates were centrifuged for 45 min at 39,000×g at 2°. The hypotonic supernatant fraction contains no peroxidase activity. […] The reaction was started by the addition of enzyme (extract), and initial rates of guaiacol oxidation were determined from the increase in absorbance at 470 nm for the first minutes.

[2] = mice treated by cyclophosphamide

`CCC/C=C1\OC(=O)C2=C1CCC=C2` [LIG, ligustilide] was tested, and the “3H-TdR incorporation into lymphocytes, CPM” value (human blood lymphocytes) was 2180 ± 360 CPM, the White blood cells (white blood cells) was 13.8 ± 2.0 × 10^3/cm^3 and the “Lymphoblastoid transformation CPM ± SD” value (lymphocytes) was 1650 ± 270 CPM. The “Level of serum colony stimulating factor (CSF)” value (hemopoietic system; after injection) was “increased”, the “3H-TdR uptake in marrow and spleen” value (hemopoietic system; [2]) was “higher” and the “Cells in bone-marrow (BMC)” value (hemopoietic system; [2]) was “increased”. The “Recovery rate of hemopoieses” value (hemopoietic system; [2]) was “markedly improve”, the RNA units (uterine RNA) was 0.92 ± 0.12 and the “Mean (CFU-S ± SD)” value [1] was 28.5 ± 3.5. For the same compound, the DNA synthesis (uterine tissues) was 1052 ± 110 CPM/10 g uterine tissues, the “Phagocytic (rate ± SD)” value (peritoneal macrophages) was 26.8 ± 3.1 and the IL-2 (interleukin-2 (rIL-2)) was 75.6 ± 8.9 U/ml. For the same compound, the Peroxidase activity (uterine peroxidase) was 7.6 ± 0.8 Enzyme units/10 mg uterus.
